Patent US20230066011A1, “PYRROLOPYRIMIDINE DERIVATIVE, AND PHARMACEUTICAL COMPOSITION FOR PREVENTING OR TREATING PROTEIN KINASE-RELATED DISEASE COMPRISING SAME AS ACTIVE INGREDIENT” (VORONOI CO., LTD., priority 2019, published 2023)

Assays:
Assay type in all cases: biochemical
human GST-CLK1 = target: T1, human GST-CLK1 (Homo sapiens, UniProt P49759); assay: GST-CLK1 enzyme inhibition, ADP-Glo kinase assay; settings: ATP 10 μM, GST-CLK1 129-end
T1 construct: purified human GST-CLK1 (129-end, SignalChem) enzyme; purchased SignalChem
T1 sequence (P49759 129-484 limits assumed): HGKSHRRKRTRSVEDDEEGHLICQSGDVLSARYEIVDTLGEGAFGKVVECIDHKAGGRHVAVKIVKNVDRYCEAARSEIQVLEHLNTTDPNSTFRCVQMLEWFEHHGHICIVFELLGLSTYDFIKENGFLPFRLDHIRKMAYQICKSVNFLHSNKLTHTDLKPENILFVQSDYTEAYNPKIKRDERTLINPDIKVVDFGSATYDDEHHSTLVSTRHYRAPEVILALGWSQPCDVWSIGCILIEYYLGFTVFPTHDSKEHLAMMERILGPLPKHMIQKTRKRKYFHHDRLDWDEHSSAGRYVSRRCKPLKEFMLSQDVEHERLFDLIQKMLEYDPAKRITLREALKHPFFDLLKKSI
Procedure, shortened: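 Human GST-CLK1 (129-end, 3 ng) reacted with substrate and 10 μM ATP for 1 h at 25° C in 40 mM Tris-HCl pH 7.4, 20 mM MgCl2, 0.5 mg/mL BSA, 50 μM DTT. ADP-Glo luminescence was normalised to solvent control; IC50 (nM) from 3 data sets.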

human GST-DYRK1A = target: T2, human GST-DYRK1A (Homo sapiens, UniProt Q13627); assay: GST-DYRK1A enzyme inhibition, ADP-Glo kinase assay; settings: ATP 10 μM, GST-DYRK1A full length, read-out: DYRK1 IC50
T2 construct: purified human GST-DYRK1A (full length, Thermo Scientifics) enzyme; purchased Thermo Scientifics
Procedure, shortened: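 Full-length human GST-DYRK1A (10 ng) with 10 μM ATP and specific substrate in 40 mM Tris-HCl pH 7.4, 20 mM MgCl2, 0.5 mg/mL BSA, 50 μM DTT, 1 h at 25 °C. ADP formation read by ADP-Glo luminescence relative to solvent control; IC50 from three data sets.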

LRRK2 (G2019S) = LRRK2 (G2019S) (Homo sapiens, UniProt Q5S007, G2019S); assay: LRRK2 G2019S enzyme inhibition, ADP-Glo kinase assay; parameters: purchased SignalChem L10-12GG; settings: ATP 25 μM
Chain of LRRK2 (G2019S) (Q5S007 970-2527 G2019S limits assumed): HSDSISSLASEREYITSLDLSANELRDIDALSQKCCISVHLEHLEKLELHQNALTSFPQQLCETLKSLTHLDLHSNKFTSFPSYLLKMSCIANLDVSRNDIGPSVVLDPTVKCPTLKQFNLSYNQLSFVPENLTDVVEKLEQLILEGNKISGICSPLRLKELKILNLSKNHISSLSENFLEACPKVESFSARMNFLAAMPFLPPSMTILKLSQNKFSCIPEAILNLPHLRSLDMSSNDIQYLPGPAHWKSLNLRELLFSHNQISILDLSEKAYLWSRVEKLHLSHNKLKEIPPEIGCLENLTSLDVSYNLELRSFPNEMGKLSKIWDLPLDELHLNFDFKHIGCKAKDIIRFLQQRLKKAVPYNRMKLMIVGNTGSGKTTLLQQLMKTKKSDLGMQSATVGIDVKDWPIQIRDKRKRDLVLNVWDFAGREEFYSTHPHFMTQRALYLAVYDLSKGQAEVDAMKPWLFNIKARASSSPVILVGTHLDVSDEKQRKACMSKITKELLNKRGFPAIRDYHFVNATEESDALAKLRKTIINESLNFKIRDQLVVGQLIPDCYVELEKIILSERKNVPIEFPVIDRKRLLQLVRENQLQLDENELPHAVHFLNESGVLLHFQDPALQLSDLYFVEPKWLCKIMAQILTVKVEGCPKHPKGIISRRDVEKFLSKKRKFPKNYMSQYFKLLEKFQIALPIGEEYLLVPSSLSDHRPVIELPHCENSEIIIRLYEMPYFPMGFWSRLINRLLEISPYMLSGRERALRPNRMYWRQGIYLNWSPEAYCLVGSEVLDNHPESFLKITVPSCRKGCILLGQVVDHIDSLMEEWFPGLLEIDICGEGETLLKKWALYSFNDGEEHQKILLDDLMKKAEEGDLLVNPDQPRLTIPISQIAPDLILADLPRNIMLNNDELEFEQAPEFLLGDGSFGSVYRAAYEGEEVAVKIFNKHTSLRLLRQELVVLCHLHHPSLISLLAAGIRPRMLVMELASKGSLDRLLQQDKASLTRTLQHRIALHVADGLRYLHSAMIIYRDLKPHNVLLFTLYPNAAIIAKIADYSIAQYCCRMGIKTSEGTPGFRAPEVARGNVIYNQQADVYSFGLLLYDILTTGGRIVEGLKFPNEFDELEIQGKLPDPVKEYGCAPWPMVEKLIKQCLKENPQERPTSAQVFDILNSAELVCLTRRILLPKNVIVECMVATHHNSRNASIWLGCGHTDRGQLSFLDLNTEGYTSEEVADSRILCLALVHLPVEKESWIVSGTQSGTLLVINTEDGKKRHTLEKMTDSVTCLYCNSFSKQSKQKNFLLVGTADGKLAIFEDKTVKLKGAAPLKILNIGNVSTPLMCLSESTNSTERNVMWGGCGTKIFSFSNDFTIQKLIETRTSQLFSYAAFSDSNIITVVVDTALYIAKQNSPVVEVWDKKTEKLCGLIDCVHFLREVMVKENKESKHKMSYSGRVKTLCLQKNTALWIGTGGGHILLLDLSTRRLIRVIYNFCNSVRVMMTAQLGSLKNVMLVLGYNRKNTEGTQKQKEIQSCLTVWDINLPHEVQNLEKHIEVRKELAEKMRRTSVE
Procedure, shortened: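 Purified human LRRK2 G2019S (16 ng) with 25 μM ATP and 0.2 μg substrate, 2 h at 25° C. in Tris-HCl pH 7.4, MgCl2, BSA, DTT buffer; compounds at 12 final concentrations, 50 μM down to 0.000001024 μM. ADP-Glo luminescence versus solvent control gave IC50.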

Row | SMILES | IC50 (human GST-CLK1) | IC50 (human GST-DYRK1A) | IC50 (LRRK2 (G2019S))
1 | CNc1nc(Nc2ccc(P3(=O)CCN(C4CC4)CC3)cc2OC)nc2[nH]cc(C(F)(F)F)c12 [Example 216, 1-cyclopropyl-4-(3-methoxy-4-((4-(methylamino)-5-(trifluoromethyl)-7H-pyrrolo[2,3-d]pyrimidin-2-y)amino)phenyl)-1,4-azaphosphinane 4-oxide] | 101 to 300 nM | 101 to 300 nM | < 100 nM
2 | COc1cc(S(C)(=O)=O)ccc1Nc1nc(NC2CCC2)c2cc[nH]c2n1 [Example 24, N^4-cyclobutyl-N^2-(2-methoxy-4-(methylsulfonyl)phenyl)-7H-pyrrolo[2,3-d]pyrimidine-2,4-diamine] | 301 to 1000 nM | 301 to 1000 nM | < 100 nM
3 | CS(=O)(=O)CCNc1nc(Nc2ccc(C(=O)N3CCC(N4CCOCC4)CC3)c3c2OCC3)nc2[nH]cc(C#N)c12 [Example 345, 4-((2-(methyl-sulfonyl)eth-yl)amino)-2-((4-(4-morpholino-piperidine-1-carbonyl)-2,3-dihydro-benzofuran-7-yl)amino)-7H-pyrrolo[2,3-d]pyrimidine-5-carbonitrile] | < 100 nM | 301 to 1000 nM | < 100 nM
4 | COc1cc(S(C)(=O)=O)ccc1Nc1nc(N[C@@H]2CCOC2)c2c(C(F)(F)F)c[nH]c2n1 [Example 210, (R)-N^2-(2-methoxy-4-(methylsulfonyl)phenyl)-N^4-(tetrahydrofuran-3-yl)-5-(trifluoromethyl)-7H-pyrrolo[2,3-d]pyrimidine-2,4-diamine] | 301 to 1000 nM | 301 to 1000 nM | < 100 nM
5 | N#Cc1c[nH]c2nc(Nc3ccc(C(=O)N4CCOCC4)c4c3OCCO4)nc(NC3CCCCC3)c12 [Example 248] | 301 to 1000 nM | 301 to 1000 nM | < 100 nM
6 | O=C(c1ccc(Nc2nc(NC3CCCCC3)c3cc[nH]c3n2)c2c1OCCO2)N1CCOCC1 [Example 49, (8-((4-(cyclohexylamino)-7H-pyrrolo[2,3-d]pyrimidin-2-yl)amino)-2,3-dihydrobenzo[b][1,4]dioxin-5-yl)(morpholino)methanone 2,2,2-trifluoroacetate] | 301 to 1000 nM | 301 to 1000 nM | < 100 nM
7 | O=C(c1ccc(Nc2nc(NC3CCCC3)c3c(C(F)(F)F)c[nH]c3n2)c2c1CCO2)N1CCC(N2CCOCC2)CC1 [Example 459, (7-((4-(cyclo-pentylamino)-5-(trifluoromethyl)-7H-pyrrolo[2,3-d]pyrimidin-2-yl)amino)-2,3-dihydrobenzo-furan-4-yl)(4-morpho-linopiperidin-1-yl)methanone] | 301 to 1000 nM | 301 to 1000 nM | < 100 nM
8 | COc1cc(S(C)(=O)=O)ccc1Nc1nc(NC2CCOCC2)c2cc[nH]c2n1 [Example 30, N^2-(2-methoxy-4-(methylsulfonyl)phenyl)-N^4-(tetrahydro-2H-pyran-4-yl)-7H-pyrrolo[2,3-d]pyrimidine-2,4-diamine 2,2,2-trifluoroacetate] | 301 to 1000 nM | 301 to 1000 nM | < 100 nM
9 | O=C(c1ccc(Nc2nc(NCC3CC3)c3cc[nH]c3n2)c2c1OCCO2)N1CCOCC1 [Example 53, (8-((4-((cyclopropylmethyl)amino)-7H-pyrrolo[2,3-d]pyrimidin-2-yl)amino)-2,3-dihydrobenzo[b][1,4]dioxin-5-yl)(morpholino)methanone] | 301 to 1000 nM | 301 to 1000 nM | < 100 nM
10 | COc1cc(S(C)(=O)=O)ccc1Nc1nc(NCC2CCC2)c2cc[nH]c2n1 [Example 39, N^4-(cyclobutylmethyl)-N^2-(2-methoxy-4-(methylsulfonyl)phenyl)-7H-pyrrolo[2,3-d]pyrimidine-2,4-diamine 2,2,2-trifluoroacetate] | 301 to 1000 nM | 301 to 1000 nM | < 100 nM
11 | CC[C@H](C)Nc1nc(Nc2ccc(C(=O)N3CCOCC3)c3c2OCC3)nc2[nH]cc(C#N)c12 [Example 356, (S)-4-(sec-butylamino)-2-((4-(morpholine-4-carbonyl)-2,3-dihydro-benzofuran-7-yl)amino)-7H-pyrrolo[2,3-d]pyrimidine-5-carbonitrile] | 301 to 1000 nM | 301 to 1000 nM | < 100 nM
12 | COc1cc(S(C)(=O)=O)ccc1Nc1nc(NC2CC2)c2cc[nH]c2n1 [Example 55, N^4-cyclopropyl-N^2-(2-methoxy-4-(methylsulfonyl)phenyl)-7H-pyrrolo[2,3-d]pyrimidine-2,4-diamine] | 301 to 1000 nM | 301 to 1000 nM | < 100 nM
13 | CCCNc1nc(Nc2ccc(S(=O)(=O)N3CCOCC3)cc2OC)nc2[nH]ccc12 [Example 7, N^2-(2-methoxy-4-(morpholinosulfonyl)phenyl)-N^4-propyl-7H-pyrrolo[2,3-d]pyrimidine-2,4-diamine 2,2,2-trifluoroacetate] | 301 to 1000 nM | 301 to 1000 nM | < 100 nM
14 | COc1cc(P(C)(C)=O)ccc1Nc1nc(NCC2CC2)c2c(C(F)(F)F)c[nH]c2n1 [Example 390, (4-((4-((cyclo-propylmeth-yl)amino)-5-(trifluoromethyl)-7H-pyrrolo[2,3-d]pyrimidin-2-yl)amino)-3-methoxyphenyl) dimethyl-phosphine oxide] | < 100 nM | 301 to 1000 nM | < 100 nM
15 | CC(C)CNc1nc(Nc2ccc(C(=O)N3CCOCC3)c3c2OCC3)nc2[nH]cc(C(F)(F)F)c12 [Example 447, (7-((4-(iso-butylamino)-5-(trifluoromethyl)-7H-pyrrolo[2,3-d]pyrimidin-2-yl)amino)-2,3-dihydrobenzo-furan-4-yl) (morpholino) methanone] | 301 to 1000 nM | 301 to 1000 nM | < 100 nM
16 | O=C(c1ccc(Nc2nc(NCC3CCC3)c3c(C(F)(F)F)c[nH]c3n2)c2c1CCO2)N1CCOCC1 [Example 458, (7-((4-((cyclo-butylmethyl)amino)-5-(trifluoromethyl)-7H-pyrrolo[2,3-d]pyrimidin-2-yl)amino)-2,3-dihydrobenzo-furan-4-yl) (morpholino) methanone] | 301 to 1000 nM | 301 to 1000 nM | < 100 nM
17 | COc1cc(P(C)(C)=O)ccc1Nc1nc(N[C@@H]2CCOC2)c2c(C(F)(F)F)c[nH]c2n1 [Example 388, (R)-(3-methoxy-4-((4-((tetrahydrofuran-3-yl)amino)-5-(trifluoromethyl)-7H-pyrrolo[2,3-d]pyrimidin-2-yl)amino)phenyl)di-methylphosphine oxide] | < 100 nM | < 100 nM | < 100 nM
18 | COc1cc(S(=O)(=O)N2CCOCC2)ccc1Nc1nc(NC2CCC2)c2cc[nH]c2n1 [Example 22, N^4cyclobutyl-N^2-(2-methoxy-4-(morpholinosulfonyl)phenyl)-7H-pyrrolo[2,3-d]pyrimidine-2,4-diamine] | 301 to 1000 nM | 301 to 1000 nM | < 100 nM
19 | COc1cc(P2(=O)CCN(C3CC3)CC2)ccc1Nc1nc(N[C@H]2CCOC2)c2c(C(F)(F)F)c[nH]c2n1 [Example 417, (S)-1-cyclo-propyl-4-(3-methoxy-4-((4-((tetrahydrofuran-3-yl)amino)-5-(trifluoromethyl)-7H-pyrrolo[2,3-d]pyrimidin-2-yl)amino)phenyl)-1,4-azaphosphinane 4-oxide] | < 100 nM | 301 to 1000 nM | < 100 nM
